Assay results: patent US11278513B2, “Diethylamino compounds for use as local anesthetics” (Zhejiang Yuejia Pharmaceuticals Co., Ltd, priority 2017, dated 2022)
Values joined by “and” are separate entries in the source; they are usually repeats but may differ in a detail not shown here. Equal entries are not always repeated. Where two headings read alike, the source gives them in different places.

Legend:
[1] = tested on: corneal reflex in rabbits; test: Anesthetic effect on the corneal surface of New Zealand rabbits (corneal reflex inhibition, CRI); assay type: in vivo, New Zealand white rabbits
Experimental: New Zealand white rabbits were weighed. […] A single administration of 3 mg/animal (100 μL) was performed on the surface of the eyeball, and the drug concentration was 3% (m/V) in each case (wherein a Tris solution was added to aspirin to facilitate dissolution). Each group included 12 rabbits. […] An equal volume of normal saline was dropped onto the right eyeball as the self-negative control. […] After 30 minutes of administration, it was tested every 15 minutes. After the corneal reflex returned to the pre-dose level, the test was stopped. By comparing the corneal reflex on the administration side and the self-negative control side, the effect of the compound on the corneal reflex after administration was judged. Corneal reflex inhibition (CRI) was used to evaluate the effect of drugs on corneal reflex. CRI was calculated as follows: […]

Nav1.7 [2] = biological target: T1, Nav1.7 (Homo sapiens, UniProt Q15858); test: Inhibition of Nav1.7 channel current in CHO cells stably expressing Nav1.7; assay type: cell-based; conditions: CHO cells stably expressing Nav1.7, channel current
T1 construct: expressed in transfected cells
T1 sequence (Q15858 whole entry): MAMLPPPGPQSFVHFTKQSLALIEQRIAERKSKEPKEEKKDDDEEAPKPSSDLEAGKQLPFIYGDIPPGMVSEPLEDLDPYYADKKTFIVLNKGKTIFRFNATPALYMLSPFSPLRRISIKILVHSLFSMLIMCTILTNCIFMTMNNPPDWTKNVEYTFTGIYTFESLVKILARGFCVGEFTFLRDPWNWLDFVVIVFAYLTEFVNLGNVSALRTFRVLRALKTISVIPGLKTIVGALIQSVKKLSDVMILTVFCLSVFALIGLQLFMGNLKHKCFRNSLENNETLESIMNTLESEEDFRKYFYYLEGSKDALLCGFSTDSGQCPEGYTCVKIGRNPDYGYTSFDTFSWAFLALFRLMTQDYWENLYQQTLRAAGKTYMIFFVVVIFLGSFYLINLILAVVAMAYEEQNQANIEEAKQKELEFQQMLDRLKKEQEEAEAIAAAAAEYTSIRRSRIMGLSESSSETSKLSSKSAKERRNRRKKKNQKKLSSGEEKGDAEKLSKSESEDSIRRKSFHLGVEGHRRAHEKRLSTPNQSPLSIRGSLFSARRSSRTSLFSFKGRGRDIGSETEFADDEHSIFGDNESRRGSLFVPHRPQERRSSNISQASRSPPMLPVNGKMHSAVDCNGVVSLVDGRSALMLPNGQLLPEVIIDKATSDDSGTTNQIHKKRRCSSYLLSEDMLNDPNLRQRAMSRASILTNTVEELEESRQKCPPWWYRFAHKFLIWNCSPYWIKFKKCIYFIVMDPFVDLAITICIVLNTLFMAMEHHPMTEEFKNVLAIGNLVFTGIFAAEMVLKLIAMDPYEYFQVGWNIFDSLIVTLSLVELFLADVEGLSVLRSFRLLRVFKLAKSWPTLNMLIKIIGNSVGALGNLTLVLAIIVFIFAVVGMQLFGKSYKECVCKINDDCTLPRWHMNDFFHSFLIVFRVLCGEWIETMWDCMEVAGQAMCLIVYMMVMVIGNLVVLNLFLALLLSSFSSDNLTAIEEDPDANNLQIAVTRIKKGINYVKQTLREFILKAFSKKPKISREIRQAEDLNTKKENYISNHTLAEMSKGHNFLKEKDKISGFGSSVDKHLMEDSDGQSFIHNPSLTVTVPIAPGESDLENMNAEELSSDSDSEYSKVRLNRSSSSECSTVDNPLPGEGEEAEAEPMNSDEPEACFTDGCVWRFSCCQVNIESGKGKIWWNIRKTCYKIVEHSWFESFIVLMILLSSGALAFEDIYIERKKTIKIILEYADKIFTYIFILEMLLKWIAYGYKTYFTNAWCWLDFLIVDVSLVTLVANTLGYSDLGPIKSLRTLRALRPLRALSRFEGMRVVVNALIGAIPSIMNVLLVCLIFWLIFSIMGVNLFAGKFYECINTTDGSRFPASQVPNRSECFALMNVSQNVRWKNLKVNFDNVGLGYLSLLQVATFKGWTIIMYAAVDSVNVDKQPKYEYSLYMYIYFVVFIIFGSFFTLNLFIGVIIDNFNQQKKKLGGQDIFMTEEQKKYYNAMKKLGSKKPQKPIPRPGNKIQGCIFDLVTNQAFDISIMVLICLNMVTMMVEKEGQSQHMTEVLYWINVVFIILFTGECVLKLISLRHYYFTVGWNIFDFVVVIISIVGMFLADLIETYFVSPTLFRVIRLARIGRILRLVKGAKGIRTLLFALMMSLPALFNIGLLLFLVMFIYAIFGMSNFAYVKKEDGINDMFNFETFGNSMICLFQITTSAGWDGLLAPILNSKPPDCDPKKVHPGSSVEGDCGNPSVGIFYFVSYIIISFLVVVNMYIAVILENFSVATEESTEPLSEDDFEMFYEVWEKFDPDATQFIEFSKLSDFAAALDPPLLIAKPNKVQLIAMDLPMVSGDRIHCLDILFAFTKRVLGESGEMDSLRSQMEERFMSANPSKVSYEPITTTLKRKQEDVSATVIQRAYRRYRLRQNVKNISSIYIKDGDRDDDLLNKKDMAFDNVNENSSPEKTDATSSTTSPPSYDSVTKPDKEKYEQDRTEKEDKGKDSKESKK

Nav1.8 [3] = biological target: T2, Nav1.8 (Homo sapiens, UniProt Q9Y5Y9); test: Inhibition of Nav1.8 channel current in HEK cells stably expressing Nav1.8; assay type: cell-based; conditions: HEK cells stably expressing Nav1.8, channel current
T2 construct: expressed in transfected cells
T2 sequence (Q9Y5Y9 whole entry): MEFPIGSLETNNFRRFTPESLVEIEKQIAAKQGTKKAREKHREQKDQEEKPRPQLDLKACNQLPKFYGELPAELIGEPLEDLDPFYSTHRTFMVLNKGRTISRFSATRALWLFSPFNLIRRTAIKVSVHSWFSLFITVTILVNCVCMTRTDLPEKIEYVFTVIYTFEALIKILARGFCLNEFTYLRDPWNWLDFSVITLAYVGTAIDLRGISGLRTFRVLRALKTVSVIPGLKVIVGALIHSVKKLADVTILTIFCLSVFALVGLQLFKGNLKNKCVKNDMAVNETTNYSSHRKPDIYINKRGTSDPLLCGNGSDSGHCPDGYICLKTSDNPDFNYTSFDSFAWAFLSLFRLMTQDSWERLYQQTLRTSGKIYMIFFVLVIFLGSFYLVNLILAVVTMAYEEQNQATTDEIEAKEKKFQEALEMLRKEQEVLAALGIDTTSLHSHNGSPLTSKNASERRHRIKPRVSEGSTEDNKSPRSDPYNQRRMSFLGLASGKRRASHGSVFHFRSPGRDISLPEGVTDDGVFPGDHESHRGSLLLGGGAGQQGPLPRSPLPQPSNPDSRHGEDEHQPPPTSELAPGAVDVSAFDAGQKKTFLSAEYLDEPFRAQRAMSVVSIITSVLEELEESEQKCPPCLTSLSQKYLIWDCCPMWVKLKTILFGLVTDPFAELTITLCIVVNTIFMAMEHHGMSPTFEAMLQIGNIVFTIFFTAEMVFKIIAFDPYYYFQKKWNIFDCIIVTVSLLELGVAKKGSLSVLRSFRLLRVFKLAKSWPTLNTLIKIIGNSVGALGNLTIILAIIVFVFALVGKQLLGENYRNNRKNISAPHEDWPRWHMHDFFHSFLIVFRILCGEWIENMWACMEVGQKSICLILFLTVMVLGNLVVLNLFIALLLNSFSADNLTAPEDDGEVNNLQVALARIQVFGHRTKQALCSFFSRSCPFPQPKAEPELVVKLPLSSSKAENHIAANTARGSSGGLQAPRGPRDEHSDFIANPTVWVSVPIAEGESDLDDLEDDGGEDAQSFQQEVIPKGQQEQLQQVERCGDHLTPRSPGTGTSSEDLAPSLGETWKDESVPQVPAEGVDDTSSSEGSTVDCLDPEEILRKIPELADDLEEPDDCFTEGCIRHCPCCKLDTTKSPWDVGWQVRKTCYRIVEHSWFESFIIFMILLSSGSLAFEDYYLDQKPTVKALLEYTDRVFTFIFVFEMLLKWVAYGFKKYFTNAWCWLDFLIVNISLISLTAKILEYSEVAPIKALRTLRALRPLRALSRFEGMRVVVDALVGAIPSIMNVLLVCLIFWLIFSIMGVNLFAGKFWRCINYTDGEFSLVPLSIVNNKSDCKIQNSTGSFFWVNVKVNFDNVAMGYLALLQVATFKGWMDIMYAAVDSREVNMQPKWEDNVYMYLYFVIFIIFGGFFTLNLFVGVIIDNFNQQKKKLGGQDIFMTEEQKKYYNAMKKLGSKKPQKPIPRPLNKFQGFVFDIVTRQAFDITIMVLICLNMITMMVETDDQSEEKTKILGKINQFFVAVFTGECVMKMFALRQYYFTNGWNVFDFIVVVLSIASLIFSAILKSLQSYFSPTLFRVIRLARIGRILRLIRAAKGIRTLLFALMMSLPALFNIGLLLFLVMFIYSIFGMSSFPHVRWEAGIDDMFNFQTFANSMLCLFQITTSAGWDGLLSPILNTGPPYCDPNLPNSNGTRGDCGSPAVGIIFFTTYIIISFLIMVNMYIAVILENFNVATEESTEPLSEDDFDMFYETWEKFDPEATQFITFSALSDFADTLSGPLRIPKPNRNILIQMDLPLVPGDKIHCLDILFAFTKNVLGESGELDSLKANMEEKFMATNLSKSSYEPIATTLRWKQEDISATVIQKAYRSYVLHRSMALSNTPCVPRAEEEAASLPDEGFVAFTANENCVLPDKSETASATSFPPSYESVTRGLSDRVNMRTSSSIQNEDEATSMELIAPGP

[4] = Stability of aqueous solution at 2-8° C. (HPLC); assay type: physicochemical; conditions: for Main Drug, %: aqueous solution 5 g in 50 mL sterile water; for Main Drug, % / Salicylic acid, % (impurity) / Salicylic acid-(2-diethylaminoethyl ester) hydrochloride, % (impurity) / Acetylsalicylic acid, % (impurity): 2-8° C.; for Salicylic acid, % (impurity) / Salicylic acid-(2-diethylaminoethyl ester) hydrochloride, % (impurity) / Acetylsalicylic acid, % (impurity): aqueous solution
[5] = tested on: rat dorsal root ganglion (DRG) neurons; test: Patch clamp inhibition of action potential of acutely isolated rat DRG neurons; assay type: cell-based; conditions: DRG neuron
From the text: In addition, the inventor used acutely isolated rat dorsal root ganglion (DRG) neurons as the experimental object, using patch clamp technology to investigate the inhibition effect of the compound represented by Formula 1 of the present invention on the neuronal excitability of the dorsal root ganglion.

[6] = Physical and chemical properties (repose angle, solubility, acidity, dissociation constant); assay type: physicochemical
Nav1.8 [7] = biological target: T2, Nav1.8; conditions: reported by a literature; cited from earlier work
Nav1.7 [8] = biological target: T1, Nav1.7; conditions: reported by a literature; cited from earlier work
[9] = 3% (m/V), 100 μL on left eyeball, 0 min, mean ± SD
[10] = 3% (m/V), 100 μL on left eyeball, 10 min after administration, mean ± SD
[11] = 3% (m/V), 100 μL on left eyeball, 15 min after administration, mean ± SD
[12] = 3% (m/V), 100 μL on left eyeball, 20 min after administration, mean ± SD
[13] = 3% (m/V), 100 μL on left eyeball, 25 min after administration, mean ± SD
[14] = 3% (m/V), 100 μL on left eyeball, 30 min after administration, mean ± SD
[15] = 3% (m/V), 100 μL on left eyeball, 45 min after administration, mean ± SD
[16] = 3% (m/V), 100 μL on left eyeball, 60 min after administration, mean ± SD
[17] = ophthalmic administration, 3% (m/V), rabbits
[18] = 3% (m/V), 100 μL on left eyeball, 5 min after administration, mean ± SD

O=C([O-])c1ccccc1O.[Na+] [Sodium salicylate, sodium salicylate]
CRI (%) ([1]; rabbit, in vivo): 0.0±0.0% | local anesthetic effect (in words) ([1]; rabbit, in vivo): no local anesthetic effect at all

CCN(CC)CCOC(=O)c1ccccc1OC(C)=O.Cl [2-(diethylamino)-ethyl-2-acetoxybenzoate hydrochloride]
IC50 (Nav1.7 [2]): 17.7 µM | IC50 (Nav1.8 [3]): 74.6 µM | Main Drug, % ([4]; month 0): 99.48% | Main Drug, % ([4]; month 0.5): 99.32% | Main Drug, % ([4]; month 1): 97.59% | Main Drug, % ([4]; month 2): 94.86% | Main Drug, % ([4]; month 3, hydrochloride): 86% and 86.55% | Salicylic acid, % (impurity) ([4]; month 0): 0.0028% | Salicylic acid-(2-diethylaminoethyl ester) hydrochloride, % (impurity) ([4]; month 0): 0.51% | Salicylic acid, % (impurity) ([4]; month 0.5): 0.0035% | Salicylic acid-(2-diethylaminoethyl ester) hydrochloride, % (impurity) ([4]; month 0.5): 0.67% | Acetylsalicylic acid, % (impurity) ([4]; month 1): 0.018% | Salicylic acid, % (impurity) ([4]; month 1): 0.0044% | Salicylic acid-(2-diethylaminoethyl ester) hydrochloride, % (impurity) ([4]; month 1): 2.38% | Acetylsalicylic acid, % (impurity) ([4]; month 2): 0.033% | Salicylic acid, % (impurity) ([4]; month 2): 0.012% | Salicylic acid-(2-diethylaminoethyl ester) hydrochloride, % (impurity) ([4]; month 2): 5.09% | Acetylsalicylic acid, % (impurity) ([4]; month 3): 0.042% | Salicylic acid, % (impurity) ([4]; month 3): 0.049% | stability in solution (in words) ([4]; solution state): did not meet the general requirements for chemical drug stability | CRI (%) [1, 9]: 0.0 ± 0.0% | CRI (%) ([1]; 3% (m/V), 100 μL on left eyeball, 5 min after administration; mean ± SD; hydrochloride)): 99.1 ± 2.0% | CRI (%) [1, 10]: 97.2 ± 2.9% | CRI (%) [1, 11]: 96.7 ± 6.5% | CRI (%) [1, 12]: 86.7 ± 9.8% | CRI (%) [1, 13]: 77.5 ± 2.9% | CRI (%) [1, 14]: 57.5 ± 12.2% | CRI (%) [1, 15]: 12.2 ± 12.4% | CRI (%) [1, 16]: 0.0 ± 0.0% | local anesthetic effect (in words) [1, 17]: had a local anesthesia effect for ophthalmic administration, with quick onset | IC50 [5]: 34.6 µM | Dissociation constant [6]: 8.82 | Repose angle [6]: 42° | Acidity: pH value of the 2% aqueous solution ([6]; 2% aqueous solution at 25 ± 0.5° C.): product at 25 ± 0.5 °C is 4.0-6.0 | Solubility in acetone ([6]; acetone): slightly soluble | Solubility in ether ([6]; ether): insoluble | Solubility in ethyl acetate ([6]; ethyl acetate): insoluble | Solubility in water ([6]; water): extremely soluble

CCN(CC)CC(=O)Nc1c(C)cccc1C [Lidocaine, lidocaine]
CRI (%) [1, 9]: 0.0 ± 0.0% | CRI (%) [1, 18]: 98.3 ± 3.9% | CRI (%) [1, 10]: 95.0 ± 10.0% | CRI (%) [1, 11]: 91.7 ± 15.3% | CRI (%) [1, 12]: 86.7 ± 21.0% | CRI (%) [1, 13]: 82.5 ± 27.3% | CRI (%) [1, 14]: 70.0 ± 27.3% | CRI (%) [1, 15]: 32.5 ± 30.5% | CRI (%) [1, 16]: 0.0 ± 0.0% | IC50 (Nav1.8 [7]): 104 µM | IC50 [5]: 37.1 µM | IC50 (Nav1.7 [8]): 450 µM

CC(=O)Oc1ccccc1C(=O)O [Aspirin, aspirin]
CRI (%) [1, 9]: 0.0 ± 0.0% | CRI (%) [1, 18]: 0.0 ± 0.0% | CRI (%) [1, 10]: 0.0 ± 0.0% | CRI (%) [1, 11]: 0.0 ± 0.0% | CRI (%) [1, 12]: 0.0 ± 0.0% | CRI (%) [1, 13]: 0.0 ± 0.0% | CRI (%) [1, 14]: 0.0 ± 0.0% | CRI (%) [1, 15]: 0.0 ± 0.0% | CRI (%) [1, 16]: 0.0 ± 0.0% | CRI (%) ([1]; no time point stated): 0.0±0.0% | local anesthetic effect (in words) [1, 17]: no local anesthetic effect at all
